Here are results for 2 compounds from EP0906078B1, “TOPICAL USE OF TEMPOL IN THE PREVENTION OF PHOTOAGING” (Bernstein, Eric F., priority 1996, dated 1997).

Series [1] concerns human elastin promoter. Kind of series: UVA/8-MOP (PUVA)-induced promoter activation (CAT activity) in fibroblast cultures from transgenic mice. The class given is cell-based. The method, then: Because a response to UVA alone in vitro is not measurable and the in vivo response is relatively small, 8-methoxypsoralen (8-MOP) was added to the system to enhance the promoter response to UVA.
In these experiments, control cells received no UVA or 8-MOP. UVA controls received either 0.5, 0.75 or 1.0 J/cm^2 of UVA without prior incubation with 8-MOP. 8-MOP controls received 1 µg/ml of 8-MOP but no UVA. Tempol controls received 100 mM Tempol and no UVA or 8-MOP. PUVA-treated cells were preincubated with 1.0 µg/ml of 8-MOP in PBS and then exposed to 0.5, 0.75 or 1.0 J/cm^2. Tempol treated cells were pretreated with 100 mM Tempol 12.5 minutes prior to UVA exposure. 8-MOP was also added to these cells at the same time as the Tempol.
The addition of Tempol to the cultures reduced the PUVA-induced increase in CAT activity to 1.5-, 1.2- and 2.0-fold that of controls, respectively, thus almost completely eliminating the PUVA-induced increase in CAT activity.
Fibroblast cultures were established from the skin of transgenic mice by explanting tissue specimens onto plastic tissue culture dishes and allowing cells to migrate to the surrounding area. The primary cultures were maintained in Dulbecco's modified Eagle's medium supplemented with 10% fetal calf serum, 2 mM L-glutamine and antibiotics, at 37°C. The primary cell cultures were passaged by trypsinization, and the subcultures in passages three or four were utilized for UVB treatment. After UV exposure, the cells were incubated in tissue culture medium for 24 hours, and then harvested for determination of CAT activity.
To measure the expression of the human elastin promoter/CAT reporter gene construct in the skin of transgenic mice and in fibroblast cultures established from these animals, CAT activity was determined. For extraction of the CAT from skin, the specimens were homogenized in 0.25 Tris-HCl, pH 7.5, using a tissue homogenizer (Brinkmann Instruments, Inc. Westbury, NY). The homogenates were centrifuged at 10,000 X g for 15 minutes at 4°C and the protein concentration in the supernatant determined by a commercial protein assay kit (Bio-Rad Laboratories, Richmond, CA). Aliquots of the supernatant containing 100 µg of protein were used for assay of CAT activity by incubation with [^14C] chloramphenicol in accordance with well-known procedures. The acetylated and non-acetylated forms of radioactive chloramphenicol were separated by thin-layer chromatography and CAT activity was determined by the radioactivity in the acetylated forms as a percent of the total radioactivity in each sample.
Irradiation with UVA was performed using a closely spaced array of seven Sylvania FR40T12 PUVA lamps filtered through window glass of 2 mm thickness to remove wavelengths below 320 nm. The energy output at 38 cm from the array was measured with a Solar Light Model 3D UVA and UVB detector (Solar Light Company, Philadelphia, PA). The output of the lamps filtered through the window glass was 2.02 mW/cm^2, with no detectable UVB.

A further series can be described thus: Absorption spectrum. The format is physicochemical.
The conditions of series [2]: in vivo; cited from earlier work.
The test system of series [3] is human elastin promoter. Kind of series: UVB-induced promoter activation (CAT activity) in fibroblast cultures from transgenic mice.
Series [4] relates to human elastin promoter. Put plainly: Transgenic mouse model of photoaging: human elastin promoter/CAT reporter activity in skin after UVB. The settings on record: in vivo.

Values joined by “and” are separate entries in the source; they are usually repeats but may differ in a detail not shown here. Equal entries are not always repeated.

As for `COc1c2occc2cc2ccc(=O)oc12` [8-MOP, 8-methoxypsoralen, reference compound], the CAT activity is on record as 2.7 fold in the series with human elastin promoter [1] (1 µg/ml 8-MOP and 0.5 J/cm^2 UVA, no Tempol, relative to controls); 9.0 fold in the series on human elastin promoter [1] (1 µg/ml 8-MOP and 0.75 J/cm^2 UVA, no Tempol, relative to controls); 21.4 fold in the series on human elastin promoter [1] (1 µg/ml 8-MOP and 1.0 J/cm^2 UVA, no Tempol, relative to controls); “failed to produce significant CAT activity” in the series with human elastin promoter [1] (8-MOP alone (1 µg/ml), no UVA).
Take `CC1(C)CC(O)CC(C)(C)N1[O]` [Tempol, 4-hydroxy-2,2,6,6-tetramethyl-piperidinyloxy, free radical]: in the series on human elastin promoter [1], the CAT activity was 1.5 fold and 1.2 fold and 2.0 fold; the “protection against the PUVA-induced increases in CAT activity” value was “failed to afford protection”. The “absorption in the UVA range” value in “Absorption spectrum” was “very little absorption”. Further, the “detection in the blood following application” value in series [2] is reported as “undetectable”. In the series with human elastin promoter [3], the “% Protection from UVB” value is 41 p<0.01% and 74 p<0.001% and 69 p<0.001% and 42 p<0.001%; the “further reduction of CAT activity by scavenging properties” value is 38%; the “reduction in CAT activity from cells treated with UVB alone” value is approximately 6 fold. Also, the CAT activity with human elastin promoter [4] is 1.7 fold and 3.3 fold.
